# Assay: Safety evaluation in the renal impairment single dose study (Example 3)
# Assay type: in vivo, human
# Protocol: The safety evaluation was based on the review of the individual values (clinically significant abnormalities) and descriptive statistics (summary tables). All safety analyses were performed using the safety population and based on the on-treatment phase (defined as the start time of investigational medicinal product [IMP] administration up to Day 3 visit). For laboratory, vital sign, and ECG data, the Potentially Clinically Significant Abnormalities (PCSAs) were analyzed using PCSA list (Version 3.0, 24 May 2014). Electrocardiogram parameters were obtained from automatic reading of the 12-lead ECGs and were analyzed as raw parameter value and change from baseline. For vital signs, raw data and changes from baseline were summarized using descriptive statistics by population group and time of measurement. All individual data for biochemistry, hematology, and qualitative urinary tests were listed.
# Vital signs and ECG readings were analyzed as raw parameter value and change from baseline.
# Adverse events were coded according to the Medical Dictionary for Regulatory Activities (MedDRA, version 19.1). They were classified into pre-defined standard categories according to chronological criteria: • Pretreatment adverse events: AEs that occurred, worsened (according to the Investigator's opinion) or became serious during the pretreatment phase (defined as the time between the signature of the informed consent and IMP administration [excluded]); • Treatment-emergent adverse events (TEAEs): AEs that occurred, worsened or became serious during the on-treatment phase; • Posttreatment adverse events: AEs that occurred, worsened or became serious during the posttreatment phase (defined as starting after the Day 3 visit and ending with EOS).
# The number and percentage of subjects with TEAEs were listed by population group, primary system-organ class (SOC), preferred term (PT), and AE diagnosis.
# [1] = renal impairment study, single dose
smiles,measurement,setting,value
"CCCCCCCC(=O)N[C@H](CN1CCCC1)[C@H](O)c1ccc2c(c1)OCCO2 [eliglustat, N-((1R,2R)-1-(2,3-dihydrobenzo[b][1,4]dioxin-6-yl)-1-hydroxy-3-(pyrrolidin-1-yl)propan-2-yl)octanamide]",Total number of mild TEAEs observed,"in 1 subject, considered related to study drug: fatigue in a healthy subject",one
same,Deaths or withdrawals due to AEs,[1],no deaths or withdrawals due to AEs
same,Serious adverse events,[1],No serious adverse events were reported
same,"Treatment emergent PCSA (laboratory values, vital signs, ECGs)",[1],no treatment emergent PCSA that were clinically relevant
